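Protocol summary: plate cells (96-well), add compound at 5 concentrations, incubate 48 h, interpolate endpoints linearly. GI50 marks 50% less growth. TGI: concentration producing complete growth inhibition.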
Columns and labels:
Assay in all cases: growth of human tumour cells (NCI), 48 h
[1] = system: 786-0 renal
[2] = system: A498 renal
[3] = system: A549 NSCLC
[4] = system: ACHN renal
[5] = system: BT-549 breast
[6] = system: CAKI-1 renal
[7] = system: CCRF-CEM leukemia
[8] = system: COLO 205 colon
[9] = system: DU-145 prostate
[10] = system: EKVX NSCLC
[11] = system: HCC-2998 colon
[12] = system: HCT-116 colon
[13] = system: HCT-15 colon
[14] = system: HL-60(TB) leukemia
[15] = system: HOP-92 NSCLC
[16] = system: HS 578T breast
[17] = system: HT29 colon
[18] = system: IGROV1 ovarian
[19] = system: K-562 leukemia
[20] = system: KM12 colon
[21] = system: LOX IMVI melanoma
[22] = system: M14 melanoma
[23] = system: MALME-3M melanoma
[24] = system: MCF7 breast
[25] = system: MDA-MB-231 breast
[26] = system: MDA-MB-435
[27] = system: MOLT-4 leukemia
[28] = system: NCI-H226 lung
[29] = system: NCI-H460 lung
[30] = system: NCI-H522 lung
[31] = system: NCI/ADR-RES ovarian
[32] = system: OVCAR-3 ovarian
[33] = system: OVCAR-4 ovarian
[34] = system: OVCAR-5 ovarian
[35] = system: OVCAR-8 ovarian
[36] = system: PC-3 prostate
[37] = system: RPMI-8226 leukemia
[38] = system: SF-268 CNS
[39] = system: SF-295 CNS
[40] = system: SF-539 CNS
[41] = system: SK-MEL-2 melanoma
[42] = system: SK-MEL-28 melanoma
[43] = system: SK-MEL-5 melanoma
[44] = system: SK-OV-3 ovarian
[45] = system: SN12C renal
[46] = system: SNB-19 CNS
[47] = system: SNB-75 CNS
[48] = system: SW-620 colon
[49] = system: T-47D breast
[50] = system: TK-10 renal
[51] = system: U251 CNS
[52] = system: UACC-257 melanoma
[53] = system: UACC-62 melanoma
[54] = system: UO-31 renal

`COc1cc(/C=C2\CC(C)CC3C2=NN(c2ccccc2)C3c2cc(OC)c(OC)c(OC)c2)cc(OC)c1OC` (stereo not drawn) was tested, and the GI50 [1] was 27 µM, the TGI [1] was > 100 µM and the GI50 [2] was 13.5 µM. The TGI [2] was 42.5 µM, the GI50 [3] was 14.9 µM and the TGI [3] was > 100 µM. For the same molecule, the GI50 [4] was 11 µM, the TGI [4] was 44.6 µM and the GI50 [5] was 10.1 µM. For the same molecule, the TGI [5] was 39.9 µM, the GI50 [6] was 26.7 µM and the TGI [6] was > 100 µM. For the same molecule, the GI50 [7] was 7.75 µM, the TGI [7] was > 100 µM and the GI50 [8] was 17.5 µM. The TGI [8] was > 100 µM, the GI50 [9] was 15.4 µM and the TGI [9] was 45.7 µM. The GI50 [10] was 13.5 µM, the TGI [10] was > 100 µM and the GI50 [11] was 17.9 µM. For the same molecule, the TGI [11] was 37.5 µM, the GI50 [12] was 6.21 µM and the TGI [12] was 33.1 µM. The GI50 [13] was 11.2 µM, the TGI [13] was 25.6 µM and the GI50 [14] was 6.48 µM. The TGI [14] was 90.6 µM, the GI50 [15] was 13.6 µM and the TGI [15] was 37.1 µM. For the same molecule, the GI50 [16] was 18.4 µM, the TGI [16] was 81.2 µM and the GI50 [17] was 11.1 µM. The TGI [17] was 39.9 µM, the GI50 [18] was 20.2 µM and the TGI [18] was > 100 µM. The GI50 [19] was 6.4 µM, the TGI [19] was > 100 µM and the GI50 [20] was 7.28 µM. It also gave a TGI [20] of 40.8 µM, a GI50 [21] of 9.69 µM and a TGI [21] of 27.8 µM. The GI50 [22] was 14.9 µM, the TGI [22] was 52.1 µM and the GI50 [23] was 21.3 µM. The TGI [23] was > 100 µM, the GI50 [24] was 10.6 µM and the TGI [24] was > 100 µM. The GI50 [25] was 14.4 µM, the TGI [25] was 71 µM and the GI50 [26] was 8.53 µM. For the same molecule, the TGI [26] was 47.7 µM, the GI50 [27] was 13 µM and the TGI [27] was > 100 µM. The GI50 [28] was 37.4 µM, the TGI [28] was > 100 µM and the GI50 [29] was 11.1 µM. The TGI [29] was 28.4 µM, the GI50 [30] was 10.2 µM and the TGI [30] was 59.3 µM. The GI50 [31] was 12.1 µM, the TGI [31] was > 100 µM and the GI50 [32] was 14.1 µM. For the same molecule, the TGI [32] was > 100 µM, the GI50 [33] was 14.2 µM and the TGI [33] was > 100 µM. The GI50 [34] was 53.7 µM, the TGI [34] was > 100 µM and the GI50 [35] was 10.2 µM. For the same molecule, the TGI [35] was > 100 µM, the GI50 [36] was 16.9 µM and the TGI [36] was > 100 µM. For the same molecule, the GI50 [37] was 3 µM, the TGI [37] was 26.5 µM and the GI50 [38] was 14.1 µM. For the same molecule, the TGI [38] was 44.6 µM, the GI50 [39] was 10.3 µM and the TGI [39] was 63.7 µM. It also gave a GI50 [40] of 16.6 µM, a TGI [40] of 36.2 µM and a GI50 [41] of 15.6 µM. For the same molecule, the TGI [41] was 93 µM, the GI50 [42] was 11.2 µM and the TGI [42] was 39.7 µM. For the same molecule, the GI50 [43] was 11.8 µM, the TGI [43] was 24.2 µM and the GI50 [44] was 9.14 µM. The TGI [44] was 41 µM, the GI50 [45] was 19.8 µM and the TGI [45] was > 100 µM. For the same molecule, the GI50 [46] was 21.7 µM, the TGI [46] was > 100 µM and the GI50 [47] was 25.4 µM. It also gave a TGI [47] of 87.5 µM, a GI50 [48] of 10.7 µM and a TGI [48] of 22.5 µM. The GI50 [49] was 4.07 µM, the TGI [49] was 31.7 µM and the GI50 [50] was 24.3 µM. For the same molecule, the TGI [50] was 93.3 µM, the GI50 [51] was 9.77 µM and the TGI [51] was 39 µM. The GI50 [52] was 20.4 µM, the TGI [52] was > 100 µM and the GI50 [53] was 11.7 µM. For the same molecule, the TGI [53] was 57.1 µM, the GI50 [54] was 22 µM and the TGI [54] was > 100 µM.

— PubChem BioAssay (NCI)
